Where “and” joins values, the source holds several entries; their conditions need not be identical. Equal entries are not always repeated.
Columns and labels:
HER-2 = target: T1, HER-2 (Homo sapiens, UniProt P04626); test: HER-2 Kinase Assay; assay type: biochemical; details: for inhibition at 1 µM: test concentration of 1 μM; for IC50: value in parentheses
T1 construct: His6 with thrombin site (N); purchased Proqinase (Freiburg, Germany)
Method in brief: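 Read-out was scintillation counting of 33P incorporated into biotinylated polyGluTyr captured on streptavidin plates. Reactions ran 1 h at 30 °C with GST-fused HER-2 residues 679–1255, 1 μM ATP, Mn2+ and Mg2+ at pH 7.5; data given as percent inhibition at 1 μM, with IC50 where determined.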

c-Src kinase (human) = target: T2, c-Src kinase (human) (Homo sapiens, UniProt P12931); test: c-Src Kinase Assay; assay type: biochemical; details: for IC50: read-out: c-Src IC50 (in parentheses); for inhibition at 2 µM / c-Src % Inhibition: test concentration of 2 μM, multiple values are separate assay results; for c-Src % Inhibition: 2 µM
T2 construct: purchased Upstate Biotechnology, Lake Placid, N.Y
Method in brief: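 Inhibition was read as 33P incorporation, counted on P30 filtermats, after a 40 min, 30° C reaction. Human c-Src acted on 100 μM Cdc2 peptide with 5 μM ATP (final), pH 7.0 MOPS/MgCl2. Values are percent inhibition at 2 μM compound, or IC50 where determined.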

T1 sequence (P04626 679-1255): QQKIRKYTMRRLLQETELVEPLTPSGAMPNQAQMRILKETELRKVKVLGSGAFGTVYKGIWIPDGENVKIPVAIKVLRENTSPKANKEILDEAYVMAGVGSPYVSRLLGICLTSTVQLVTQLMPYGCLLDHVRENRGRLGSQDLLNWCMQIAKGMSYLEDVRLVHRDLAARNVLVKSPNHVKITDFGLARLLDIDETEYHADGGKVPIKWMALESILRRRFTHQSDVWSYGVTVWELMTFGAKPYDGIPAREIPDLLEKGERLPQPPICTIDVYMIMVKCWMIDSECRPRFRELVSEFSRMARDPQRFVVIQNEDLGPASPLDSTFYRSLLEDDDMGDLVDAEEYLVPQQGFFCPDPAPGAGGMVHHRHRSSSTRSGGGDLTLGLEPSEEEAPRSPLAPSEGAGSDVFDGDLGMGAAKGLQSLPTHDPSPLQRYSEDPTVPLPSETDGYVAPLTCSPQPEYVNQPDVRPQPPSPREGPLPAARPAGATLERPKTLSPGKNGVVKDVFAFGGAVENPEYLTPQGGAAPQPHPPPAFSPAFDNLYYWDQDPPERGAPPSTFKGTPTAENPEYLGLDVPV
T2 sequence (P12931 whole entry): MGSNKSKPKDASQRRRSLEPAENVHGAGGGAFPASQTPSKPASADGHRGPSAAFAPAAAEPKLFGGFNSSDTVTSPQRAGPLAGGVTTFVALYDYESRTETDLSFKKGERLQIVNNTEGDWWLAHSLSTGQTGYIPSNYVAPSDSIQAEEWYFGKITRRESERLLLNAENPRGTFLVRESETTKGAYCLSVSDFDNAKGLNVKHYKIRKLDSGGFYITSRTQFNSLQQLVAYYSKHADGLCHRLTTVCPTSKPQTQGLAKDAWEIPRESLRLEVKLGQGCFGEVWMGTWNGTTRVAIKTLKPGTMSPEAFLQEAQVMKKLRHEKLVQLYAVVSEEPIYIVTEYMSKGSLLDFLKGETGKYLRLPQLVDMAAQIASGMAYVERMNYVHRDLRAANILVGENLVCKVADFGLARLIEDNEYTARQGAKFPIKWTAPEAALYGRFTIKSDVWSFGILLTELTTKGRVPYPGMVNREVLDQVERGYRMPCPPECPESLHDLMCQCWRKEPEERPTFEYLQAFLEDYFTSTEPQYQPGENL

inhibition at 1 µM (HER-2) | IC50 (c-Src kinase (human)) | inhibition at 2 µM (c-Src kinase (human)) | IC50 (HER-2) | c-Src % Inhibition (c-Src kinase (human)) | Structure (SMILES)
21% | 4150 nM | 53% |  |  | COc1cc(N2C(=O)Nc3c(C(=O)Nc4ccc(CN5CCCC5)cc4)sc4ncnc2c34)c(Cl)cc1Cl [Cpd 43, 5-(2,4-dichloro-5-methoxy-phenyl)-4-oxo-4,5-dihydro-3H-1-thia-3,5,6,8-tetraaza-acenaphthylene-2-carboxylic acid (4-pyrrolidin-1-ylmethyl-phenyl)-amide]
-5% | > 200000 nM | 23% |  |  | COc1ccc(Cl)c(N2C(=O)Nc3c(C(=O)Nc4ccc(OC)c(OC)c4)sc4ncnc2c34)c1 [Cpd 49, 5-(2-chloro-5-methoxy-phenyl)-4-oxo-4,5-dihydro-3H-1-thia-3,5,6,8-tetraaza-acenaphthylene-2-carboxylic acid (3,4-dimethoxy-phenyl)-amide]
-5% | 8090 nM | 20% |  |  | COc1ccc(Cl)c(N2C(=O)Nc3c(C(=O)Nc4ccc(OCCN5CCOCC5)c(OC)c4)sc4ncnc2c34)c1 [Cpd 50, 5-(2-chloro-5-methoxy-phenyl)-4-oxo-4,5-dihydro-3H-1-thia-3,5,6,8-tetraaza-acenaphthylene-2-carboxylic acid [3-methoxy-4-(2-morpholin-4-yl-ethoxy)-phenyl]-amide]
28% | 6580 nM | 33% |  |  | COc1ccc(Cl)c(N2C(=O)Nc3c(C(=O)Nc4ccc(CN5CCOCC5)cc4)sc4ncnc2c34)c1 [Cpd 51, 5-(2-chloro-5-methoxy-phenyl)-4-oxo-4,5-dihydro-3H-1-thia-3,5,6,8-tetraaza-acenaphthylene-2-carboxylic acid (4-morpholin-4-ylmethyl-phenyl)-amide]
3% | 1490 nM | 42% |  |  | COC(=O)c1sc2ncnc3c2c1NC(=O)N3c1c(Cl)ccc2c1OCO2 [Cpd 54, 5-(5-chloro-benzo[1,3]dioxol-4-yl)-4-oxo-4,5-dihydro-3H-1-thia-3,5,6,8-tetraaza-acenaphthylene-2-carboxylic acid methyl ester]
22% | 7940 nM | 38% |  |  | COc1cc(N2C(=O)Nc3c(C(=O)Nc4ccc(CN5CCN(C)CC5)cc4)sc4ncnc2c34)c(Cl)cc1Cl [Cpd 60]
 | 75 nM | 83% | 528 nM |  | O=C(Nc1ccc(CN2CCOCC2)cc1)c1sc2ncnc3c2c1NC(=O)N3c1c(Cl)ccc2c1OCO2 [Cpd 62, 5-(5-chloro-benzo[1,3]dioxol-4-yl)-4-oxo-4,5-dihydro-3H-1-thia-3,5,6,8-tetraaza-acenaphthylene-2-carboxylic acid (4-morpholin-4-ylmethyl-phenyl)-amide]
57% |  | -14% | 447 nM |  | O=C(Nc1ccc(NCCCN2CCOCC2)nc1)c1sc2ncnc3c2c1NC(=O)N3c1cccc(Br)c1 [Cpd 64, 5-(3-bromo-phenyl)-4-oxo-4,5-dihydro-3H-1-thia-3,5,6,8-tetraaza-acenaphthylene-2-carboxylic acid [6-(3-morpholin-4-yl-propylamino)-pyridin-3-yl]-amide]
93% |  | 44% | 69 nM |  | O=C(Nc1ccc(CN2CCCCC2)cc1)c1sc2ncnc3c2c1NC(=O)N3c1ccc(OCc2ccccn2)c(Cl)c1 [Cpd 89, 5-[3-chloro-4-(pyridin-2-ylmethoxy)-phenyl]-4-oxo-4,5-dihydro-3H-1-thia-3,5,6,8-tetraaza-acenaphthylene-2-carboxylic acid (4-piperidin-1-ylmethyl-phenyl)-amide]
82% |  | 8% | 503 nM | 4% | CN1CCN(Cc2ccc(NC(=O)c3sc4ncnc5c4c3NC(=O)N5c3ccc(OCc4ccccn4)c(Cl)c3)cc2)CC1 [Cpd 90, 5-[3-chloro-4-(pyridin-2-ylmethoxy)-phenyl]-4-oxo-4,5-dihydro-3H-1-thia-3,5,6,8-tetraaza-acenaphthylene-2-carboxylic acid [4-(4-methyl-piperazin-1-ylmethyl)-phenyl]-amide]
98% | > 200000 nM |  | 41 nM |  | O=C(Nc1ccc(CN2CCCCC2)cc1)c1sc2ncnc3c2c1NC(=O)N3c1ccc(Oc2ccccc2)cc1 [Cpd 96, 4-oxo-5-(4-phenoxy-phenyl)-4,5-dihydro-3H-1-thia-3,5,6,8-tetraaza-acenaphthylene-2-carboxylic acid (4-piperidin-1-ylmethyl-phenyl)-amide]
97% | ~2000 nM |  | 27 nM |  | O=C(Nc1ccc(CN2CCOCC2)cc1)c1sc2ncnc3c2c1NC(=O)N3c1ccc(Oc2ccccc2)cc1 [Cpd 97, 4-oxo-5-(4-phenoxy-phenyl)-4,5-dihydro-3H-1-thia-3,5,6,8-tetraaza-acenaphthylene-2-carboxylic acid (4-morpholin-4-ylmethyl-phenyl)-amide]
95% | 592 nM |  | 88 nM | 63% and 41% | CN1CCN(Cc2ccc(NC(=O)c3sc4ncnc5c4c3NC(=O)N5c3ccc(Oc4ccccc4)cc3)cc2)CC1 [Cpd 98, 4-oxo-5-(4-phenoxy-phenyl)-4,5-dihydro-3H-1-thia-3,5,6,8-tetraaza-acenaphthylene-2-carboxylic acid [4-(4-methyl-piperazin-1-ylmethyl)-phenyl]-amide]
95% | > 200000 nM |  | 111 nM |  | COc1cc(NC(=O)c2sc3ncnc4c3c2NC(=O)N4c2ccc(Oc3ccccc3)cc2)ccc1OCCN1CCCCC1 [Cpd 100, 4-oxo-5-(4-phenoxy-phenyl)-4,5-dihydro-3H-1-thia-3,5,6,8-tetraaza-acenaphthylene-2-carboxylic acid [3-methoxy-4-(2-piperidin-1-yl-ethoxy)-phenyl]-amide]
 | 1840 nM | 55% | 7070 nM | 60% | O=C(Nc1ccc(CN2CCOCC2)cc1)c1sc2ncnc3c2c1NC(=O)N3c1c(Cl)cccc1Cl [Cpd 104, 5-(2,6-dichloro-phenyl)-4-oxo-4,5-dihydro-3H-1-thia-3,5,6,8-tetraaza-acenaphthylene-2-carboxylic acid (4-morpholin-4-ylmethyl-phenyl)-amide]
83% |  | 68% | 89 nM | 54% | O=C(Nc1ccc(CN2CCOCC2)cc1)c1sc2ncnc3c2c1NC(=O)N3c1ccc(Oc2ccccc2)c(F)c1 [Cpd 113, 5-(3-fluoro-4-phenoxy-phenyl)-4-oxo-4,5-dihydro-3H-1-thia-3,5,6,8-tetraaza-acenaphthylene-2-carboxylic acid (4-morpholin-4-ylmethyl-phenyl)-amide]
 |  |  | 26 nM |  | O=C(Nc1ccc(CN2CCCCC2)cc1)c1sc2ncnc3c2c1NC(=O)N3c1ccc(Sc2ccccc2)cc1 [Cpd 169, 4-oxo-5-(4-phenylsulfanyl-phenyl)-4,5-dihydro-3H-1-thia-3,5,6,8-tetraaza-acenaphthylene-2-carboxylic acid (4-piperidin-1-ylmethyl-phenyl)-amide]
 |  |  | 56 nM |  | O=C(Nc1ccc(CN2CCOCC2)cc1)c1sc2ncnc3c2c1NC(=O)N3c1ccc(Sc2ccccc2)cc1 [Cpd 178, 4-oxo-5-(4-phenylsulfanyl-phenyl)-4,5-dihydro-3H-1-thia-3,5,6,8-tetraaza-acenaphthylene-2-carboxylic acid (4-morpholin-4-ylmethyl-phenyl)-amide]

From US7579356B2, “Thia-tetraazaacenaphthylene kinase inhibitors” (Janssen Pharmaceutica NV, priority 2005, dated 2009)
